Measured values taken from patent US4225472A, “Truncated somatostatin analogs” (American Home Products Corporation, priority 1979, dated 1980).
Positions of bridges follow the written chain, without caps; N, C: chain ends. Non-standard residues stand in square brackets, D forms with d. Residues, ends and D or L forms follow the SMILES beside them.

Columns and labels:
[1] = tested on: growth hormone (GH); experiment: Duration of activity, growth hormone level at 2 and 4 hours; format: in vivo; details: dose 1,000 μg/kg, *p<0.01
Text: The duration of activity of the product of Example 2 was as follows: […]

[2] = tested on: growth hormone (GH); experiment: Arginine-stimulated Nembutal-anesthetized rats, blood growth hormone by radioimmunoassay; format: in vivo, rat; details: albino male rats, dose 100 μg/kg subcutaneous, arginine 10 min later, blood 5 min after arginine; control 488 ± 82; *p<0.05
Description: (§1) The product of the preceding examples illustrates the selective activity of the compounds of this invention for growth hormone and glucagon suppression in the following standard procedure:
(§2) Albino male rats are administered Nembutal intraperitoneally at a dose of 50 milligrams per kilogram. Fifteen minutes later a subcutaneous injection of the test compound or physiological saline (control) is administered. Ten minutes later 0.5 milliliters of arginine (300 milligrams per milliliter, pH 7.2) is injected into the heart. Five minutes after receipt of the arginine the rats are decapitated and blood is collected into trasylol-EDTA. An appropriate aliquot is assayed for growth hormone (GH), insulin, and glucagon by radioimmunoassay.

[3] = tested on: glucagon; experiment: Arginine-stimulated Nembutal-anesthetized rats, blood glucagon by radioimmunoassay; format: in vivo, rat; details: albino male rats, dose 100 μg/kg subcutaneous, arginine 10 min later, blood 5 min after arginine; control 133 ± 13; *p<0.05
Description: as §1, §2

[4] = tested on: insulin; experiment: Arginine-stimulated Nembutal-anesthetized rats, blood insulin by radioimmunoassay; format: in vivo, rat; details: albino male rats, dose 100 μg/kg subcutaneous, arginine 10 min later, blood 5 min after arginine; control 74 ± 4
Description: as §1, §2

Structure (SMILES): C[C@@H](O)[C@@H]1NC(=O)[C@H](CCCCN)NC(=O)[C@@H](Cc2c[nH]c3ccccc23)NC(=O)[C@H](Cc2c[nH]c3ccccc23)NC(=O)[C@H](Cc2ccccc2)NC(=O)[C@@H](N)CSSC[C@H](C(=O)O)NC(=O)[C@H](Cc2ccccc2)NC1=O [Example 2, L-Cysteinyl-L-phenylalanyl-L-tryptophyl-D-tryptophyl-L-lysyl-L-threonyl-L-phenylalanyl-D-cysteine cyclic (1-8) disulfide] (H-CFW[dW]KTF[dC]-OH; disulfide 1-8)
- GH ([1]; 2 hours, control 369 ± 60): 60 ± 6 ng/mL
- GH ([1]; 4 hours, control 354 ± 68): 75 ± 10 ng/mL
- GH [2]: 191 ± 60 ng/mL
- GLUN [3]: 60 ± 12 pg/mL
- INS [4]: 69 ± 4 μU/ml
